Measurements from ChEMBL document CHEMBL1121735, “Synthesis and adrenoceptor affinity of some highly polar beta-substituted catecholamines” (J Med Chem, 1981).

Legend:
[1] = biological target: Adrenergic receptor alpha; assay: Binding affinity against Alpha adrenergic receptor using [3H]dihydroergocryptine radioligand in rat brain homogenate; assay type: tissue-based
[2] = biological target: Adrenergic receptor beta (Rattus norvegicus, UniProt P18090+P10608+P26255); assay: Binding affinity against Beta adrenergic receptor using [3H]dihydroalprenolol radioligand in rat brain homogenate; assay type: tissue-based

IC50 [1] [M l-1] | IC50 [2] [M l-1] | SMILES
0.000033 | 9.1e-6 | CC(C)NCC(c1ccc(O)c(O)c1)S(=O)(=O)O (racemic)
0.00001 | 0.00011 | CNCC(c1ccc(O)c(O)c1)S(=O)(=O)O (racemic)
3.6e-6 | 0.00013 | NCC(c1ccc(O)c(O)c1)S(=O)(=O)O (racemic)
